Measured values from patent US9540343B2 (Gilead Sciences, Inc., priority 2011, dated 2017).

Tests used:
in vitro = assay: in vitro
Summary of the method: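 Cytoprotection read-out: CellTiter-Glo chemiluminescence after 5 days at 37 °C of HIV-IIIb-infected MT-4 cells (m.o.i. 0.003) with compound in 10-point 3-fold dilutions, quadruplicate, 10% FBS. Cytotoxicity (CC50) measured identically without virus.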

HIV-IIIb = assay: Test A: Antiviral assay in MT4 cells; type: cell-based, HIV-1; conditions: MT-4 cells infected with HIV-IIIb, 5 days, CellTiter-Glo; for inhibition at 2 µM: Human immunodeficiency virus 1, IIIB, MT4, 120 h, read-out: % inhibition at 2 μM, percent inhibition of virus-induced cell killing, from dose response curve at 2 uM drug; for % inhibition at 2 μM: percent inhibition of virus-induced cell killing, from dose response curve at 2 uM drug
[1] = human, uninfected MT-4 cells, CC50 (nM), same protocol as Test A, CellTiter-Glo

Which CC50 at 5 days (in vitro; [1]) does the source give for `Cc1ccccc1-c1cccnc1[C@@H](Cc1ccccc1)NC(=O)Cc1c[nH]c2ccc(O)cc12` [Example 15, (R)-2-(5-hydroxy-1H-indol-3-yl)-N-(2-phenyl-1-(3-o-tolylpyridin-2-yl)ethyl)acetamide] here?
Its CC50 at 5 days is 28200 nM.

What about the inhibition at 2 µM (HIV-IIIb) of the same compound?
The inhibition at 2 µM was 0%.

What does the source list for `CC(C)CC(C(=O)N[C@@H](Cc1cc(F)cc(F)c1)c1ncccc1-c1ccc(F)c(C(N)=O)c1)n1ccc(C(F)(F)F)n1` (single isomer, unassigned) [Example 581D]?
CC50 at 5 days (in vitro; [1]): 10600 nM; inhibition at 2 µM (HIV-IIIb): 6%

Which CC50 at 5 days (in vitro; [1]) does the source give for `CCCCC(C(=O)N[C@@H](Cc1cc(F)cc(F)c1)c1ncccc1-c1ccc(F)c(C(N)=O)c1)n1ccc(C(F)(F)F)n1` (single isomer, unassigned) [Example 487C] here?
Its CC50 at 5 days is 9710 nM.

What about the inhibition at 2 µM (HIV-IIIb) of the same compound?
Its inhibition at 2 µM is 10%.

For `Cc1ccccc1-c1cccnc1C(Cc1cc(F)cc(F)c1)NC(=O)Cc1c[nH]c2ccc(O)cc12` (centres unmarked) [Example 3, N-(2-(3,5-difluorophenyl)-1-(3-o-tolylpyridin-2-yl)ethyl)-2-(5-hydroxy-1H-indol-3-yl)acetamide], which CC50 at 5 days (in vitro; [1]) is on record?
Its CC50 at 5 days is 21900 nM.

And the inhibition at 2 µM (HIV-IIIb)?
Its inhibition at 2 µM is 40%.

What does the source list for `Cc1ccccc1-c1cccnc1[C@H](Cc1cc(F)cc(F)c1)NC(=O)Cc1c[nH]c2ccc(O)cc12` [Example 26, (S)—N-(2-(3,5-difluorophenyl)-1-(3-o-tolylpyridin-2-yl)ethyl)-2-(5-hydroxy-1H-indol-3-yl)acetamide]?
CC50 at 5 days (in vitro; [1]): 24500 nM; inhibition at 2 µM (HIV-IIIb): 70%

With `CC1(C)CC(=O)c2c(C(F)(F)F)nn(CC(=O)N[C@@H](Cc3cc(F)cc(F)c3)c3ncccc3-c3ccc(F)c(C(N)=O)c3)c2C1` [Example 369, (S)-5-(2-(2-(3,5-difluorophenyl)-1-(2-(6,6-dimethyl-4-oxo-3-(trifluoromethyl)-4,5,6,7-tetrahydro-1H-indazol-1-yl)acetamido)ethyl)pyridin-3-yl)-2-fluorobenzamide] as the compound, how does the CC50 at 5 days (in vitro; [1]) read?
The CC50 at 5 days was over 53000 nM.

And the inhibition at 2 µM (HIV-IIIb)?
Its inhibition at 2 µM is 5%.

For `NC(=O)c1cc(-c2cccnc2[C@H](Cc2cc(F)cc(F)c2)NC(=O)Cn2cc(Br)c(C(F)(F)F)n2)ccc1F` [Example 463, (S)-5-(2-(1-(2-(4-bromo-3-(trifluoromethyl)-1H-pyrazol-1-yl)acetamido)-2-(3,5-difluorophenyl)ethyl)pyridin-3-yl)-2-fluorobenzamide], which CC50 at 5 days (in vitro; [1]) is on record?
The CC50 at 5 days was 14700 nM.

And the inhibition at 2 µM (HIV-IIIb)?
The inhibition at 2 µM was 11%.

Which CC50 at 5 days (in vitro; [1]) does the source give for `CCOC(=O)c1nn(CC(=O)N[C@@H](Cc2cc(F)cc(F)c2)c2ncccc2-c2ccc(F)c(C(N)=O)c2)c2c1C1CCC2C1` (stereo partly drawn) [Example 90F, (S)-5-(2-(2-(3,5-difluorophenyl)-1-(2-(4,5,6,7-tetrahydro-3-carboethoxy-4,7-(methano)indazol-1-yl)acetamido)ethyl)pyridin-3-yl)-2-fluorobenzamide] here?
The CC50 at 5 days was 34600 nM.

What about the inhibition at 2 µM (HIV-IIIb) of the same compound?
Its inhibition at 2 µM is 13%.

With `O=C(N[C@@H](Cc1cc(F)cc(F)c1)c1ncccc1-c1ccc(Cl)cc1)C(c1c[nH]c2ccc(F)cc12)C(F)(F)F` (single isomer, unassigned) [Example 36F] as the compound, how does the CC50 at 5 days (in vitro; [1]) read?
The CC50 at 5 days was 7200 nM.

And the “% inhibition at 2 μM” value (HIV-IIIb)?
Its value is 15%.

With `O=C(Cc1c[nH]c2ccc(O)nc12)N[C@@H](Cc1cc(F)cc(F)c1)c1nccnc1-c1ccc(Cl)cc1` (stereo in doubt) [Example 476, N-(1-(3-(4-chlorophenyl)pyrazin-2-yl)-2-(3,5-difluorophenyl)ethyl)-2-(5-hydroxy-1H-pyrrolo[3,2-b]pyridin-3-yl)acetamide] as the compound, how does the CC50 at 5 days (in vitro; [1]) read?
Its CC50 at 5 days is 53200 nM.

And the inhibition at 2 µM (HIV-IIIb)?
The inhibition at 2 µM was 30%.

Which CC50 at 5 days (in vitro; [1]) does the source give for `NC(=O)c1cc(-c2cccnc2[C@H](Cc2cc(F)cc(F)c2)NC(=O)Cn2c(=O)[nH]c3ccccc32)ccc1F` [Example 318, (S)-5-(2-(2-(3,5-difluorophenyl)-1-(2-(2-oxo-2,3-dihydro-1H-benzo[d]imidazol-1-yl)acetamido)ethyl)pyridin-3-yl)-2-fluorobenzamide] here?
Its CC50 at 5 days is over 53200 nM.

And the inhibition at 2 µM (HIV-IIIb)?
The inhibition at 2 µM was 27%.

Which CC50 at 5 days (in vitro; [1]) does the source give for `NC(=O)c1cc(-c2cccnc2[C@H](Cc2cc(F)cc(F)c2)NC(=O)Cc2c[nH]c3ccc(F)cc23)ccc1Cl` [Example 412, (S)-2-chloro-5-(2-(2-(3,5-difluorophenyl)-1-(2-(5-fluoro-1H-indol-3-yl)acetamido)ethyl)pyridin-3-yl)benzamide] here?
Its CC50 at 5 days is 11100 nM.

And the inhibition at 2 µM (HIV-IIIb)?
The inhibition at 2 µM was 80%.

For `NC(=O)c1cccc(-c2cccnc2[C@H](Cc2cc(F)cc(F)c2)NC(=O)CC2C(=O)Nc3ccccc32)c1` (stereo partly drawn) [Example 191, 3-(2-((1S)-2-(3,5-difluorophenyl)-1-(2-(2-oxoindolin-3-yl)acetamido)ethyl)pyridin-3-yl)benzamide], which CC50 at 5 days (in vitro; [1]) is on record?
The CC50 at 5 days was over 50900 nM.

And the “% inhibition at 2 μM” value (HIV-IIIb)?
Its value is 19%.

For `CC(C)NS(=O)(=O)c1ccc(-c2cccnc2[C@H](Cc2cc(F)cc(F)c2)NC(=O)Cn2nc(C(F)F)c3c2C(F)(F)C2CC32)cc1` (stereo partly drawn) [Example 70, (S)—N-(1-(3-(4-(N-isopropylsulfamoyl)phenyl)-pyridin-2-yl)-2-(3,5-difluorophenyl)ethyl)-2-(3-(difluoromethyl)-5,6-dihydro-4,5-(methano)-6,6-difluoro-cyclopenta[c]pyrazol-1(4H)-yl)acetamide], which CC50 at 5 days (in vitro; [1]) is on record?
The CC50 at 5 days was 51200 nM.

What about the inhibition at 2 µM (HIV-IIIb) of the same compound?
Its inhibition at 2 µM is 56%.

Which CC50 at 5 days (in vitro; [1]) does the source give for `O=C(Cn1nc(C(F)(F)F)c2c1CCCC2)N[C@@H](Cc1cc(F)cc(F)c1)c1ncncc1-c1ccc(Cl)cc1` [Example 351, (S)—N-(1-(5-(4-chlorophenyl)pyrimidin-4-yl)-2-(3,5-difluorophenyl)ethyl)-2-(3-(trifluoromethyl)-4,5,6,7-tetrahydro-1H-indazol-1-yl)acetamide] here?
Its CC50 at 5 days is 8600 nM.

What about the inhibition at 2 µM (HIV-IIIb) of the same compound?
Its inhibition at 2 µM is 95%.

With `CNC(=O)c1cc(F)cc(-c2cccnc2[C@H](Cc2cc(F)cc(F)c2)NC(=O)Cc2c[nH]c3ccc(F)cc23)c1` [Example 63, (S)-3-(2-(2-(3,5-difluorophenyl)-1-(2-(5-fluoro-1H-indol-3-yl)acetamido)ethyl)pyridin-3-yl)-5-fluoro-N-methylbenzamide] as the compound, how does the CC50 at 5 days (in vitro; [1]) read?
Its CC50 at 5 days is 14800 nM.

What about the inhibition at 2 µM (HIV-IIIb) of the same compound?
Its inhibition at 2 µM is 22%.

With `NC(=O)c1cc(-c2cccnc2[C@H](Cc2cc(F)cc(F)c2)NC(=O)Cn2c(=O)[nH]c3cc(Cl)c(Cl)cc32)ccc1F` [Example 309, (S)-5-(2-(1-(2-(5,6-dichloro-2-oxo-2,3-dihydro-1H-benzo[d]imidazol-1-yl)acetamido)-2-(3,5-difluorophenyl)ethyl)pyridin-3-yl)-2-fluorobenzamide] as the compound, how does the CC50 at 5 days (in vitro; [1]) read?
Its CC50 at 5 days is 12000 nM.

And the inhibition at 2 µM (HIV-IIIb)?
The inhibition at 2 µM was 9%.

Which results are given for `O=C(Cc1c[nH]c2ccc(F)cc12)N[C@@H](Cc1cc(F)cc(F)c1)c1ncccc1-c1ccsc1` [Example 72, (S)—N-(2-(3,5-difluorophenyl)-1-(3-(thiophen-3-yl)pyridin-2-yl)ethyl)-2-(5-fluoro-1H-indol-3-yl)acetamide]?
CC50 at 5 days (in vitro; [1]): 16200 nM; inhibition at 2 µM (HIV-IIIb): 56%

What does the source list for `NC(=O)c1cccc(-c2cccnc2[C@H](Cc2cc(F)cc(F)c2)NC(=O)Cc2c[nH]c3cc(C(F)(F)F)ccc23)c1` [Example 527E, (S)-3-(2-(2-(3,5-difluorophenyl)-1-(2-(6-(trifluoromethyl)-1H-indol-3-yl)acetamido)ethyl)pyridin-3-yl)benzamide]?
CC50 at 5 days (in vitro; [1]): 10600 nM; inhibition at 2 µM (HIV-IIIb): 66%

Which CC50 at 5 days (in vitro; human, CC50 (nM), uninfected MT-4 cells, same protocol as Test A, CellTiter-Glo) does the source give for `CC(=O)c1cn(CC(=O)N[C@@H](Cc2cc(F)cc(F)c2)c2ncccc2-c2ccc(Cl)cc2)c2ccccc12` [Example 541, (S)-2-(3-acetyl-1H-indol-1-yl)-N-(1-(3-(4-chlorophenyl)pyridin-2-yl)-2-(3,5-difluorophenyl)ethyl)acetamide] here?
Its CC50 at 5 days is 8150 nM.

What about the inhibition at 2 µM (HIV-IIIb) of the same compound?
The inhibition at 2 µM was 37%.

What does the source list for `O=C(Cn1[nH]c(=O)c2c1CCCC2)N[C@@H](Cc1cc(F)cc(F)c1)c1ncccc1-c1ccc(Cl)cc1` [Example 146, (S)—N-(1-(3-(4-chlorophenyl)pyridin-2-yl)-2-(3,5-difluorophenyl)ethyl)-2-(3-oxo-2,3,4,5,6,7-hexahydro-1H-indazol-1-yl)acetamide]?
CC50 at 5 days (in vitro; [1]): 20600 nM; inhibition at 2 µM (HIV-IIIb): 66%

What does the source list for `NC(=O)c1cc(-c2cccnc2[C@H](Cc2cc(F)cc(F)c2)NC(=O)Cn2nc(C(F)(F)F)c3c2CCCC3=O)ccc1F` [Example 79F, (S)-5-(2-(2-(3,5-difluorophenyl)-1-(2-(4-oxo-3-(trifluoromethyl)-4,5,6,7-tetrahydro-1H-indazol-1-yl)acetamido)ethyl)pyridin-3-yl)-2-fluorobenzamide]?
CC50 at 5 days (in vitro; [1]): > 50600 nM; inhibition at 2 µM (HIV-IIIb): 19%

What does the source list for `O=C(Cn1nc(C(F)F)c2c1C(F)(F)C1CC21)N[C@@H](Cc1cc(F)cc(F)c1)c1ncccc1-c1ccc(S(=O)(=O)NC2CCCCC2)cc1` (stereo partly drawn) [Example 98, (S)—N-(1-(3-(4-(N-cyclohexylsulfamoyl)phenyl)-pyridin-2-yl)-2-(3,5-difluorophenyl)ethyl)-2-(3-(difluoromethyl)-5,6-dihydro-4,5-(methano)-6,6-difluoro-cyclopenta[c]pyrazol-1(4H)-yl)acetamide]?
CC50 at 5 days (in vitro; [1]): 18000 nM; inhibition at 2 µM (HIV-IIIb): 13%

Which results are given for `CCc1cc(C(F)(F)F)nn1CC(=O)N[C@@H](Cc1cc(F)cc(F)c1)c1ncccc1-c1ccc(F)c(C(N)=O)c1` [Example 461, (S)-5-(2-(2-(3,5-difluorophenyl)-1-(2-(5-ethyl-3-(trifluoromethyl)-1H-pyrazol-1-yl)acetamido)ethyl)pyridin-3-yl)-2-fluorobenzamide]?
CC50 at 5 days (in vitro; [1]): 32000 nM; inhibition at 2 µM (HIV-IIIb): 25%

Which CC50 at 5 days (in vitro; [1]) does the source give for `NC(=O)c1cc(-c2cccnc2[C@H](Cc2cc(F)cc(F)c2)NC(=O)Cn2nc3c(c2C(F)(F)F)C(=O)C2CC32)ccc1F` (stereo partly drawn) [Example 346D, 5-(2-((1S)-2-(3,5-difluorophenyl)-1-(2-(4-oxo-3-(trifluoromethyl)-4,4-a,5,5a-tetrahydro-2H-cyclopropa[4,5]cyclopenta[1,2-c]pyrazol-2-yl)acetamido)ethyl)pyridin-3-yl)-2-fluorobenzamide] here?
Its CC50 at 5 days is 39000 nM.

What about the inhibition at 2 µM (HIV-IIIb) of the same compound?
The inhibition at 2 µM was 1%.
